In brackets after ≈: the same amount, converted by molar mass.
Assays:
[1] = organism: Rattus norvegicus; assay: animal or person; assay type: functional
Description: Antiinflammatory activity in rat assessed as inhibition of carrageenan-induced foot edema at 30 mg/kg

[2] = Acute toxicity in po dosed mouse; conditions: in vivo
[3] = target: T1, Prostaglandin E synthase (Homo sapiens) (UniProt O14684)
T1 sequence (whole entry): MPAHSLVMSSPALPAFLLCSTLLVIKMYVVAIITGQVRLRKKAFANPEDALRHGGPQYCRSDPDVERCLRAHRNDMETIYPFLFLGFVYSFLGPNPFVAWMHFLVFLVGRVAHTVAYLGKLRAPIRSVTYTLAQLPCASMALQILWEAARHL
Description: Inhibition of prostaglandin synthetase (unknown origin)

[4] = organism: Mus musculus
[5] = organism: Rattus norvegicus; assay: Antiarthritic activity in rat assessed as reduction in adjuvant-induced arthritic pain; assay type: functional
[6] = test system: Rattus norvegicus; assay: Antiinflammatory activity in rat assessed as inhibition of carrageenan-induced foot edema; assay type: functional
[7] = test system: Rattus norvegicus; assay: Toxicity in rat assessed as indomethacin-induced intestinal perforation at 256 mg/kg after 3 days; assay type: organism-based; parameters: dose 256 mg/kg; conditions: in vivo, 72 h
[8] = test system: Rattus norvegicus; assay: Toxicity in rat assessed as indomethacin-induced intestinal perforation at 400 mg/kg after 3 days; assay type: organism-based; parameters: dose 400 mg/kg; conditions: in vivo, 72 h
[9] = test system: Rattus norvegicus; assay: Toxicity in rat assessed as indomethacin-induced intestinal perforation at 1024 mg/kg after 3 days; assay type: organism-based; parameters: dose 1024 mg/kg; conditions: in vivo, 72 h

Compound Brc1cccc(-c2nc3ncccc3o2)c1 has an inhibition in vivo at 30 mg/kg [1] of 23%.
Clc1ccccc1-c1nc2cccnc2o1 showed an inhibition in vivo at 30 mg/kg [1] of 50%.
Work on O=[N+]([O-])c1cccc(-c2nc3ncccc3o2)c1 yielded an inhibition in vivo at 30 mg/kg [1] of 21%.
FC(F)(F)Oc1ccc(-c2nc3ncccc3o2)cc1 showed an inhibition in vivo at 30 mg/kg [1] of 0%.
Clc1cccc(Cl)c1-c1nc2ncccc2o1 showed an inhibition in vivo at 30 mg/kg [1] of 14%.
In the case of COc1ccccc1-c1nc2ncccc2o1, the inhibition in vivo at 30 mg/kg [1] was 9%.
Work on Clc1ccc(-c2nc3ncccc3o2)cc1 yielded an inhibition in vivo at 30 mg/kg [1] of 24%.
In the case of N#Cc1cccc(F)c1-c1nc2ncccc2o1, the inhibition in vivo at 30 mg/kg [1] was 50%.
Work on O=[N+]([O-])c1ccccc1-c1nc2cccnc2o1 yielded an inhibition in vivo at 30 mg/kg [1] of 57%.
For COc1ccc2c(c1)c(CC(=O)O)c(C)n2C(=O)c1ccc(Cl)cc1 [INDOMETHACIN], the LD50 [2] was 50 mg/kg, the ED50 [3] was 0.1 µg/mL (≈ 0.279 µM) and the ED50 [4] was 2.7 mg. The ED50 [5] was 0.27 mg/kg and the ED50 [6] was 2.7 mg/kg.
In the case of COc1cccc(-c2nc3ncccc3o2)c1, the inhibition in vivo at 30 mg/kg [1] was 14%.
Fc1ccc(-c2nc3cccnc3o2)cc1 gave an inhibition in vivo at 30 mg/kg [1] of 27%.
Compound Fc1ccc(-c2nc3ncccc3o2)cc1 has an inhibition in vivo at 30 mg/kg [1] of 28%.
COc1cccc(-c2nc3cccnc3o2)c1 showed an inhibition in vivo at 30 mg/kg [1] of 0%.
With Nc1ccccc1-c1nc2cccnc2o1 the inhibition in vivo at 30 mg/kg [1] was 13%.
Compound Brc1ccccc1-c1nc2ncccc2o1 has an inhibition in vivo at 30 mg/kg [1] of 24%.
With O=[N+]([O-])c1ccc(-c2nc3cccnc3o2)cc1 the inhibition in vivo at 30 mg/kg [1] was 5%.
In the case of COc1ccc(-c2nc3ncccc3o2)cc1, the inhibition in vivo at 30 mg/kg [1] was 14%.
Compound Clc1ccccc1-c1nc2ncccc2o1 has an inhibition in vivo at 30 mg/kg [1] of 38%.
In the case of c1ccc(-c2nc3cccnc3o2)cc1, the inhibition in vivo at 30 mg/kg [1] was 55%.
Compound FC(F)(F)c1cccc(-c2nc3cccnc3o2)c1 has an inhibition in vivo at 30 mg/kg [1] of 7%.
Cc1ccccc1-c1nc2ncccc2o1 showed an inhibition in vivo at 30 mg/kg [1] of 0%.
Work on N#Cc1cccc(C#N)c1-c1nc2ncccc2o1 yielded an inhibition in vivo at 30 mg/kg [1] of 19%.
For Clc1cccc(-c2nc3cccnc3o2)c1, the inhibition in vivo at 30 mg/kg [1] was 8%.
For Fc1cccc(F)c1-c1nc2ncccc2o1, the LD50 [2] was 709 mg/kg, the ED50 [3] was 15 µg/mL (≈ 64.6 µM) and the ED50 [4] was 2.4 mg. For the same compound, the inhibition in vivo at 30 mg/kg [1] was 66%, the ED50 [5] was 7.4 mg/kg and the ED50 [6] was 22 mg/kg.
In the case of FC(F)(F)c1ccccc1-c1nc2ncccc2o1, the inhibition in vivo at 30 mg/kg [1] was 19%.
In the case of Cc1ccc(-c2nc3ncccc3o2)cc1, the inhibition in vivo at 30 mg/kg [1] was 5%.
With Clc1ccc(-c2nc3cccnc3o2)cc1 the inhibition in vivo at 30 mg/kg [1] was 14%.
In the case of c1ccc(-c2nc3ncccc3o2)cc1, the inhibition in vivo at 30 mg/kg [1] was 41%.
Compound Cc1ccc(-c2nc3cccnc3o2)cc1 has an inhibition in vivo at 30 mg/kg [1] of 0%.
Cc1cccc(-c2nc3cccnc3o2)c1 gave an inhibition in vivo at 30 mg/kg [1] of 14%.
Compound Fc1ccc(-c2nc3ncccc3o2)c(F)c1 has an inhibition in vivo at 30 mg/kg [1] of 23%.
In the case of Fc1ccccc1-c1nc2ncccc2o1, the LD50 [2] was 556 mg/kg, the ED50 [3] was 3 µg/mL (≈ 14 µM) and the ED50 [4] was 6 mg. For the same compound, the inhibition in vivo at 30 mg/kg [1] was 64%, the Activity [7] was “Non-toxic” and the ED50 [5] was 23 mg/kg. It also gave an ED50 [6] of 21 mg/kg.
Compound COc1ccc(Br)c(-c2nc3ncccc3o2)c1 has an inhibition in vivo at 30 mg/kg [1] of 8%.
In the case of Fc1ccc(F)c(-c2nc3ncccc3o2)c1, the inhibition in vivo at 30 mg/kg [1] was 18%.
With N#Cc1ccccc1-c1nc2ncccc2o1 the LD50 [2] was 1220 mg/kg, the ED50 [3] was 14 µg/mL (≈ 63.3 µM) and the ED50 [4] was 2 mg. The inhibition in vivo at 30 mg/kg [1] was 62%, the ED50 [5] was 20 mg/kg and the ED50 [6] was 17 mg/kg.
Compound Fc1cccc(F)c1-c1nc2cccnc2o1 has an inhibition in vivo at 30 mg/kg [1] of 50%.
Work on Clc1cccc(-c2nc3ncccc3o2)c1 yielded an inhibition in vivo at 30 mg/kg [1] of 32%.
N#Cc1ccccc1-c1nc2cccnc2o1 gave an LD50 [2] of 1500 mg/kg, an ED50 [3] of 16 µg/mL (≈ 72.3 µM) and an ED50 [4] of 3 mg. The inhibition in vivo at 30 mg/kg [1] was 61%, the Activity [7] was “Non-toxic” and the ED50 [5] was 44 mg/kg. The ED50 [6] was 11 mg/kg.
Work on CCCCC1C(=O)N(c2ccccc2)N(c2ccccc2)C1=O [PHENYLBUTAZONE] yielded an LD50 [2] of 555 mg/kg, an ED50 [3] of 3 µg/mL (≈ 9.73 µM) and an ED50 [4] of 4.3 mg. The ED50 [5] was 14 mg/kg, the ED50 [6] was 28 mg/kg and the Activity [8] was “Non-toxic”.
In the case of Fc1cc(Cl)ccc1-c1nc2ncccc2o1, the inhibition in vivo at 30 mg/kg [1] was 19%.
Brc1ccccc1-c1nc2cccnc2o1 showed an inhibition in vivo at 30 mg/kg [1] of 31%.
In the case of COc1ccc(-c2nc3cccnc3o2)cc1, the inhibition in vivo at 30 mg/kg [1] was 29%.
For Fc1cccc(-c2nc3cccnc3o2)c1, the inhibition in vivo at 30 mg/kg [1] was 35%.
With CSc1ccccc1-c1nc2ncccc2o1 the inhibition in vivo at 30 mg/kg [1] was 21%.
Cc1ccccc1-c1nc2cccnc2o1 showed an inhibition in vivo at 30 mg/kg [1] of 3%.
CC(C)Cc1ccc(C(C)C(=O)O)cc1 (stereo unspecified) [IBUPROFEN] showed an LD50 [2] of 1370 mg/kg, an ED50 [3] of 0.4 µg/mL (≈ 1.94 µM) and an ED50 [4] of 5 mg. It also gave an ED50 [5] of 27 mg/kg and an ED50 [6] of 15 mg/kg.
For N#Cc1cccc(-c2nc3ncccc3o2)c1, the inhibition in vivo at 30 mg/kg [1] was 21%.
COc1ccc(C#N)c(-c2nc3ncccc3o2)c1 showed an inhibition in vivo at 30 mg/kg [1] of 3%.
Work on CC(=O)Oc1ccccc1C(=O)O [ASPIRIN] yielded an LD50 [2] of 1220 mg/kg, an ED50 [3] of 13.4 µg/mL (≈ 74.4 µM) and an ED50 [4] of 7 mg. For the same compound, the ED50 [5] was 67 mg/kg, the ED50 [6] was 89 mg/kg and the Activity [9] was “Non-toxic”.
For N#Cc1ccc(-c2nc3cccnc3o2)cc1, the inhibition in vivo at 30 mg/kg [1] was 17%.

Source: ChEMBL document CHEMBL3243978, “2-(Substituted phenyl)oxazolo[4,5-b]pyridines and 2-(substituted phenyl)oxazolo[5,4-b]pyridines as nonacidic antiinflammatory agents” (J Med Chem, 1978)
